Data as given in patent publication US20210169899A1, “COMPOSITIONS AND THEIR USE IN ORAL DOSING REGIMENS” (Lipocine Inc., priority 2014, published 2021).

Experiment: Clinical trial of oral testosterone undecanoate TRT in hypogonadal males, 24 hour PK profiles of serum testosterone with dose titration at weeks 3 and 7
Format: in vivo, human
Experimental: Specifically, 24 hour pharmacokinetic profiles for serum testosterone were determined for hypogonadal subjects receiving 225 mg TU twice daily with a meal after 3 weeks of treatment. The titration or dose adjustment was made based on the serum testosterone Cavg0-24 value calculated from the 24 hour pharmacokinetic profile (or the Cmax value). Another titration or dose adjustment was made similarly at 7 weeks. The titration or adjustment criteria used during the study is shown in the first column of Table A with the titration decision (dose adjustment) is shown in column 3.
A clinical trial was performed as set forth below in regards to the TRT disclosed herein.
Diagnosis of primary or secondary hypogonadism Male, 18 to 80 years of age, hypogonadism onset prior to age 65 Serum T<300 ng/dL, based on 2 consecutive samples, obtained on two separate days (6 to 10 AM) either naïve or following appropriate washout.
IPSS≥19 points PSA>2 ng/mL
Hemoglobin <11.5 or >16.5 g/dL; Hematocrit <35 or >54% History of myocardial infarction; prostate or breast cancer; uncontrolled, untreated obstructive sleep apnea; gastric surgery, HIV, Hepatitis, seizures or convulsions Subjects with a partner who is pregnant or planning to become pregnant during the study A total of 314 subjects were enrolled and randomized into the TRT arm or active control arm. The clinical trial design is outlined in FIG. 1. Starting dose: 225 mg testosterone undecanoate (TU) (equivalent to 142 mg testosterone) twice daily, 12 hours apart, with standard meals Two dose titration periods based on full 24 hour PK profile at Week 3 and 7
The dose range was 150 mg to 300 mg BID (total daily dose of 300 mg to 600 mg TU).
Efficacy Population (N=153): Subjects randomized into the study with at least one PK profile and no significant protocol deviations (includes imputed missing data/LOCF)
Safety Set (N=210): Subjects randomized into the study and took at least one dose of the drug Imputed missing data by Last Observation Carried Forward (LOCF), or considered treatment failures if no PK data available Full Analysis Set (N=193): Subjects randomized into the study with at least one PK profile (includes imputed missing data/LOCF) Per Protocol Set (N=132): Subjects who completed Week 13 without significant protocol deviations Primary endpoint target ≥75% subjects should achieve Cavg within normal range (300 ng/dL to 1140 ng/dL) and >65% lower bound 95% CI

[1] = serum total T, Efficacy Population

In the case of `CCCCCCCCCCC(=O)O[C@H]1CC[C@H]2[C@@H]3CCC4=CC(=O)CC[C@]4(C)[C@H]3CC[C@]12C` [testosterone undecanoate], the “95% CI lower bound of % subjects with Cavg within normal range” value (“95% CI lower bound of % subjects” for short) (Efficacy Population) is reported as 81.9%, the “% of subjects with Cavg < 300 ng/dL” value (Efficacy Population) is reported as 11.2% and the “% of subjects with Cavg > 1140 ng/dL” value (Efficacy Population) is reported as 0.7%. The “% subjects with Cavg within normal range” value (Efficacy Population, serum testosterone Cavg 300 ng/dL to 1140 ng/dL) was 88.2%, the “95% CI lower bound of % subjects” value (Full Analysis Set) was 82.0% and the “% subjects with Cavg within normal range” value (Full Analysis Set, Cavg 300 ng/dL to 1140 ng/dL) was 87.5%. For the same compound, the “95% CI lower bound of % subjects” value (Per Protocol Set) was 81.1%, the “% subjects with Cavg within normal range” value (Per Protocol Set, Cavg 300 ng/dL to 1140 ng/dL) was 87.9% and the “95% CI lower bound of % subjects” value (Safety Set) was 73.8%. The “% subjects with Cavg within normal range” value (Safety Set, Cavg 300 ng/dL to 1140 ng/dL) was 80.0%, the “AM - PM effect” value (comparison table) was “Not much different AM - PM” and the “Subjects with Cavg < 300 ng/dL” value (comparison table) was 11%. For the same compound, the “Variability (CV) of Cavg” value (comparison table) was 37%, the “Variability (CV) of Cmax” value (comparison table) was 45% and the “Mean Cavg” value (comparison table, serum testosterone) was 447 ng/dL. For the same compound, the “Efficacy (% subjects with Cavg in normal range)” value (comparison table, starting daily dose 450 mg TU) was “analysis (88.2%)”, the “24 hour pharmacokinetic profiles at weeks 3, 7 and 13 (FIG. 2)” value (patients without dose change during the trial) was “consistent inter-day pharmacokinetics” and the “Cavg, Mean (CV)” value (serum testosterone, Efficacy Population) was 447 (37%) ng/dL. For the same compound, the “Proportion of subjects with 1800 ≤ Cmax ≤ 2500 ng/dL” value [1] was 4.6%, the “Proportion of subjects with Cmax < 1500 ng/dL” value [1] was 82.9% and the “Proportion of subjects with Cmax > 2500 ng/dL” value [1] was 2.0%. The “% subjects with serum testosterone Cavg0-24 h within the normal range” value (subjects treated with TRT and titration scheme) was “about 87%”.
